# Assay results taken from US20210171948A1, “COMPOSITIONS AND METHODS FOR TARGETING GLYPICAN-2 IN THE TREATMENT OF CANCER” (Shepherd Therapeutics, Inc., priority 2019, published 2021).
# Key:
# [1] = tested on: GPC2 mRNA; assay: GPC2 mRNA knockdown by qPCR in TC-32 Ewing's sarcoma cells transfected with siRNA (Example 2); assay type: cell-based, human; settings: TC-32 cells; 72 hours post transfection
# Protocol: (§1) siRNAs 1-5 from Table 7 were diluted to 40 nM in OptiMEM media and mixed in a 1:3 ratio (weight by volume) with RNAiMAX. This was incubated for 15 minutes at room temperature and dispensed onto cells plated in a 6 well tissue culture plate. Total RNA samples were collected at either 72 hours post transfection to compare knockdown efficiency (FIG. 2A), or at 24, 48, 72 or 96 hours post transfection to determine the extent of GPC2 mRNA knockdown over time (FIG. 2B). Expression levels of mRNA of GPC2 were measured in these samples using primers specific for GPC2 obtained commercially from Thermofisher (Carlsbad, Calif.) and standard qPCR technique.
# [2] = tested on: GPC2 mRNA; assay: GPC2 mRNA knockdown in multiple cancer cell lines, 96 hour (Example 3); assay type: cell-based, human; settings: 96 hour incubation
# Protocol: as §1
# GPC2 mRNA knockdown and changes in cell viability were assessed in multiple cancer cell lines. Cells were transfected with either a scrambled control siRNA or with GPC2 siRNA sequence 3 or sequence 5 from Table 7 using the RNAiMAX Lipofectamine kit (Invitrogen, Carlsbad, Calif.) as previously described in Example 2, either in 96 well format (for viability assays) or 6 well format (for knockdown assessment). Following a 96 hour incubation period, cells were washed and the viability measurement was assessed using Cell Titer Glo 2.0. Total RNA was isolated from the 6 well plate samples to determine knockdown efficiency.
# [3] = tested on: CHP212, SKNAS and SHSY5Y neuroblastoma cell lines; assay: Cell viability after siRNA transfection, 96 hour (Example 4, FIG. 3B); assay type: cell-based; settings: 96 hour incubation (FIG. 3B)
# Protocol: GPC2 mRNA knockdown was assessed in multiple neuroblastoma cell lines. Cells were transfected with either a scrambled control siRNA, with GPC2 siRNA sequences 3 or 5 from Table 7, or with siRNA sequences generated by Dharmacon (sequences 12-15 from Table 7) using the RNAiMAX Lipofectamine kit (Invitrogen, Carlsbad, Calif.) as previously described. Following a 96 hour incubation period, total RNA samples were collected to compare knockdown efficiency and viability was measured in parallel plated cells.
# [4] = tested on: GPC2 mRNA; assay: GPC2 mRNA knockdown in cell lines of the cisplatin experiment (Example 5); assay type: cell-based, human
# Protocol: (§2) GPC2 mRNA was reduced using the indicated siRNAs and changes in cell viability were assessed in multiple cancer cell lines, in combination with Cisplatin treatment. Cells were transfected with either a scrambled control siRNA or with GPC2 siRNA sequences 3 or 5 from Table 7 using the RNAiMAX Lipofectamine kit (Invitrogen, Carlsbad, Calif.), as previously described, in either in 96 well (for viability assays) or 6 well format (for total RNA). Cisplatin was added at increasing concentrations (0 to 30 uM) to transfected cells at 24 hours post transfection. Following a 72 hour incubation period, cell viability was measured using Cell Titer Glo 2.0. Total RNA samples were also isolated to measure knockdown efficiency.
# [5] = tested on: CHP212 cells; assay: Cisplatin IC50 in siRNA-transfected cells, Cell Titer Glo 2.0 viability (Example 5); assay type: cell-based
# Protocol: as §2
# [6] = tested on: TOV112D cells; assay: as above; assay type: cell-based
# Protocol: as §2
# [7] = tested on: CHLA-136 cells; assay: Carboplatin IC50 in siRNA-transfected cells, Cell Titer Glo 2.0 viability (Example 6); assay type: cell-based
# [8] = tested on: CHLA-172 cells; assay: as above; assay type: cell-based
# [9] = tested on: KELLY cells; assay: as above; assay type: cell-based; settings: KELLY cells transfected with the labelled siRNA; carboplatin added 24 hours post transfection, 72 hour incubation
# [10] = tested on: SKNAS cells; assay: as above; assay type: cell-based
# [11] = tested on: CHLA-90 cells; assay: Etoposide IC50 in siRNA-transfected cells, Cell Titer Glo 2.0 viability (Example 9); assay type: cell-based; settings: CHLA-90 cells transfected with the labelled siRNA; etoposide added 24 hours post transfection, 72 hour incubation
# Protocol: (§3) GPC2 mRNA expression was reduced and changes in cell viability were assessed in multiple neuroblastoma cell lines. Cells were transfected with either a control siRNA or with GPC2 siRNA sequences 3, 5 or 7 from Table 7 using the RNAiMAX Lipofectamine kit (Invitrogen, Carlsbad, Calif.) as previously described in 96 wells for viability assays. Etoposide was added at increasing concentrations (0-15 uM) to transfected cells at 24 hours post transfection. Following a 72 hour incubation period, viability measurement were made using Cell Titer Glo 2.0.
# [12] = tested on: CHP212 cells; assay: as above; assay type: cell-based; settings: CHP212 cells transfected with the labelled siRNA; etoposide added 24 hours post transfection, 72 hour incubation
# Protocol: as §3
# [13] = tested on: SH-SY5Y cells; assay: as above; assay type: cell-based
# Protocol: as §3
# [14] = tested on: SK-N-BE2 cells; assay: as above; assay type: cell-based
# Protocol: as §3
# [15] = GIST-T1 (Gastrointestinal Stromal)
substance,measurement,setting,value
"GPC2 siRNA 3: siRNA duplex: sense CCUGCUUGGACCUCGAUAA[dT][dT] (SEQ ID NO: 207), anti-sense UUAUCGAGGUCCAAGCAGG[dT][dT] (SEQ ID NO: 208) (sense CCUGCUUGGACCUCGAUAANN; antisense UUAUCGAGGUCCAAGCAGGNN; 3' dTdT overhangs, chemistry not fully specified; listed as Homo sapiens)",Degree of GPC2 knockdown among siRNA sequences 1-5,[1],greatest degree of GPC2 knockdown
same,% GPC2 knockdown,[2]; CHP212 (Neuroblastoma),50%
same,% GPC2 knockdown,[2]; COV362 (Ovarian Carcinoma),85%
same,% GPC2 knockdown,[2]; [15],61%
same,% GPC2 knockdown,[2]; IMR32 (Neuroblastoma),36%
same,% GPC2 knockdown,[2]; MCF7 (Breast),72%
same,% GPC2 knockdown,[2]; RH30 (Rhabdomyosarcoma),78%
same,% GPC2 knockdown,[2]; RH41 (Rhabdomyosarcoma),37%
same,% GPC2 knockdown,[2]; SKNAS (Neuroblastoma),25%
same,% GPC2 knockdown,[2]; SNU16 (Gastric),53%
same,% GPC2 knockdown,[2]; TC32 (Ewing's Sarcoma),69%
same,% GPC2 knockdown,[2]; TC71 (Ewing's Sarcoma),42%
same,% GPC2 knockdown,[2]; TOV112D (Ovarian Carcinoma),89%
same,GPC2 knockdown across the cell lines of Table 8,[2]; multiple cancer cell lines,GPC2 knockdown was observed in each cell line
same,"Viability decrease among sequences 3, 5, 12-15",[3],greater viability decrease
same,% GPC2 knockdown,[4]; CHLA-90 (Neuroblastoma),50%
same,% GPC2 knockdown,[4]; CHLA-136 (Neuroblastoma),25%
same,% GPC2 knockdown,[4]; CHLA-172 (Neuroblastoma),5%
same,% GPC2 knockdown,[4]; CHP212 (Neuroblastoma),60%
same,% GPC2 knockdown,[4]; COV362 (Ovarian cancer),85%
same,% GPC2 knockdown,[4]; [15],55%
same,% GPC2 knockdown,[4]; KELLY (Neuroblastoma),65%
same,% GPC2 knockdown,[4]; RH30 (Rhabdomyosarcoma),80%
same,% GPC2 knockdown,[4]; RH41 (Rhabdomyosarcoma),55%
same,% GPC2 knockdown,[4]; SH-SY5Y (Neuroblastoma),55%
same,% GPC2 knockdown,[4]; SK-N-BE2 (Neuroblastoma),55%
same,% GPC2 knockdown,[4]; SKNAS (Neuroblastoma),40%
same,% GPC2 knockdown,[4]; SNU16 (Gastric carcinoma),50%
same,% GPC2 knockdown,[4]; TC32 (Ewing's sarcoma),70%
same,% GPC2 knockdown,[4]; TC71 (Ewing's sarcoma),55%
same,% GPC2 knockdown,[4]; TOV112D (Ovarian cancer),90%
same,Data Summary: effect of knockdown on sensitivity to cisplatin,[5]; CHP212,increases sensitivity to
same,IC50,"[5]; CHP212 cells transfected with the labelled siRNA, cisplatin added 24 hours post transfection, 72 hour incubation",7.4 µM
same,Data Summary: effect of knockdown on sensitivity to cisplatin,[6]; TOV112D,does not increase
same,IC50,"[6]; TOV112D cells transfected with the labelled siRNA, cisplatin added 24 hours post transfection, 72 hour incubation",5 µM
same,Data Summary: effect of knockdown on sensitivity to carboplatin,[7]; CHLA-136,not increase sensitivity
same,IC50,"[7]; CHLA-136 cells transfected with the labelled siRNA, carboplatin added 24 hours post transfection, 72 hour incubation",47 µM
same,Data Summary: effect of knockdown on sensitivity to carboplatin,[8]; CHLA-172,increases sensitivity to
same,IC50,"[8]; CHLA-172 cells transfected with the labelled siRNA, carboplatin added 24 hours post transfection, 72 hour incubation",100 µM
same,IC50,[9],12 µM
same,Data Summary: effect of knockdown on sensitivity to carboplatin,[10]; SKNAS,increases sensitivity to
same,IC50,"[10]; SKNAS cells transfected with the labelled siRNA, carboplatin added 24 hours post transfection, 72 hour incubation",40 µM
same,IC50,[11],0.35 µM
same,IC50,[12],0.03 µM
same,Data Summary: effect of knockdown on sensitivity to etoposide,[13]; SH-SY5Y,7 increases sensitivity to etoposide
same,IC50,"[13]; SH-SY5Y cells transfected with the labelled siRNA, etoposide added 24 hours post transfection, 72 hour incubation",0.08 µM
same,Data Summary: effect of knockdown on sensitivity to etoposide,[14]; SK-N-BE2,7 increases sensitivity to etoposide
same,IC50,"[14]; SK-N-BE2 cells transfected with the labelled siRNA, etoposide added 24 hours post transfection, 72 hour incubation",1 µM
